Read-outs that look alike come from different tables or passages of the source.
Tests used:
[1] = cited from earlier work; for relaxivity upon binding to HSA: Mn(II) bound to HSA, 25 °C; for relaxivity of complexes with q = 0: typical values
[2] = 1H relaxometry: r1p and r2p relaxivity of Mn(II) complexes; assay type: physicochemical; conditions: free Mn(II) ion, 1.41 T
Experimental: The relaxivity of Mn(II) complexes is one of the most important parameters that directly correlates with its MRI efficacy. Relaxivity is defined as the longitudinal (r1p) and transverse (r2p) water proton relaxation rate enhancement, provided by 1.0 mM concentration of the paramagnetic species. The relaxivity (r1p and r2p) of the Mn(II) complexes were determined using relaxometers operating at 0.49 T and 1.41 T field strength, in a HEPES buffer (I = 0.15 M NaCl) at different temperatures from the slopes of plots 1/T1,2 vs. (Mn(II)) for 4 concentrations of Mn(II) (data shown in Supporting Information Figures S24 and S25), and they are compared in Table 4.
The ^1H longitudinal (T1) and transverse (T2) relaxation times were measured by using Bruker Minispec MQ-20 and MQ-60 NMR analyzers (Bruker corporation, Billerica, MA, USA). The temperature of the sample holder was set at 25.0 or 37 (±0.2) °C, and controlled with a circulating water bath thermostat. The T1 values of the samples were determined by means of the inversion recovery method (180°–τ–90°), averaging 4–6 data points obtained at 12 different τ delay times, while T2 data were collected by using the Carl–Purcell–Meiboom–Gill (CPMG) spin-echo pulse sequence. Relaxivities were determined by published procedures (from the slopes of the plots of 1/T1,2 vs. (Mn(II)) for 4 concentrations of Mn(II)), in samples of 0.3–0.4 mL volume (data shown in Figures S24 and S25, Supplementary Information). The pH were set by either using a 0.05 M 4-(2-hydroxyethyl)-1-piperazine-ethanesulfonic acid (HEPES) buffer (pH = 7.4) or monitored (pH profiles) using a Metrohm 827 pH lab pH meter and a Metrohm 6.0234.100 combined electrode, in the pH range of 1.75–11.8.

[3] = cited from earlier work; for r1^298_20 MHz: 20 MHz, 298 K; for ΔH^‡: activation enthalpy of water exchange; for τv^298: correlation time of ZFS modulation; for q: hydration number; for τR^298: rotational correlation time; for Δ^2: square of the zero-field splitting energy; for kex^298: water exchange rate
[4] = 17O NMR and NMRD measurements (water exchange, rotation, hydration number); assay type: physicochemical; conditions: ratio of kex^298 values
Experimental: The relaxivity of paramagnetic metal complexes is governed by several parameters, including the water exchange rate (kex), the rotational correlation time (τR), and the number of inner sphere water molecules (q). In order to obtain information for these parameters, temperature dependent ^17O NMR measurements (9.4 T) and nuclear magnetic relaxation dispersion (NMRD) experiments were carried out in the frequency range of 0.01–80 MHz, at 3 different temperatures (25, 37, and 50 °C). Since numerous physico-chemical parameters determine the relaxivity, the independent assessment of some of the parameters is essential for the correct characterization. The variable temperature ^17O NMR measurements can deliver information about kex and τR via the transverse (1/T2) and the longitudinal (1/T1) ^17O relaxation rates, respectively, while the ^17O chemical shifts (Δω) depend on q. Therefore, the transverse and longitudinal relaxation rates and chemical shifts for a [Mn(3,9-OPC2A)] complex and a diamagnetic reference sample (HClO4, pH = 3.3) have been determined in the aqueous solution.
The ^17O 1/T2r values and the NMRD data have been analyzed simultaneously by the Swift–Connick equations [31], as well as by the Solomon–Bloembergen–Morgan (SMB) and Freed models (see Supporting Information). In this calculation, the water exchange rate, kex^298; its activation enthalpy and entropy, ΔH^‡ and ΔS^‡; the rotational correlational time, τR; its activation energy, ER; the square of the zero-field splitting energy (ZFS), Δ^2; and the correlation time of its modulation, τv, have been determined and listed in Table 5, together with corresponding values of other complexes for comparison. As a result of the high number of parameters involved in the calculations, some have to be set to reasonable estimates based on literature data. Thus, the scalar coupling constant, A/ħO, is set to 33 × 10^6 rad s^−1, the distance between the metal ion, and the inner and outer sphere water protons are fixed to rMnH = 2.83 Å and aMnH = 3.6 Å, respectively; the diffusion coefficient and its activation energy are fixed to DMnH = 23 × 10^−10 m^2s^−1 and EMnH = 18 kJmol^−1, and the activation energy of the modulation of the zero-field-splitting, Ev to 1.0 kJmol^−1.
The hydration number has been fixed to q = 1, based on the relaxivity value measured at 20 MHz (r1 = 3.09 mM^−1s^−1), and on the value, 0.97 ± 0.2, determined for q using the method proposed by Gale et al..
A Bruker Avance 400 (9.4 T) spectrometer was used to measure the longitudinal (1/T1) and transverse (1/T2) relaxation rates, and the chemical shifts of an aqueous solution of the [Mn(3,9-OPC2A)] complex (pH = 7.4, 1.3 mM) and a diamagnetic reference (HClO4 acidified water, pH = 3.3) in the temperature range of 273–348 K. The temperature calibration was performed using literature protocols relying on ethylene glycol and methanol standards. The 1/T1 and 1/T2 values were determined by the inversion−recovery and the Carr−Purcell−Meiboom−Gill spin echo technique, respectively. To avoid susceptibility corrections of the chemical shifts, a glass sphere fitted into a 10 mm NMR tube was used to contain the samples. ^17O enriched water (10% H2^17O, CortecNet) was added to the solutions to improve sensitivity (circa 1% enrichment). Proton NMRD profiles of the [Mn(3,9-OPC2A)] complex (1.00 mM, pH = 7.4) were recorded in aqueous solution on a Stelar SMARTracer Fast Field Cycling relaxometer (0.01−10 MHz), and a Bruker WP80 NMR electromagnet adapted to variable field measurements (20−80 MHz) and controlled by a SMARTracer PC-NMR console (Stelar s.r.l., Mede, Italy). The temperature was monitored by a VTC91 temperature control unit and maintained by a gas flow. The temperature was determined by previous calibration with a Pt resistance temperature probe. […]

[5] = cited from earlier work; for k2: ref 16 ([Mn(3,6-PC2A)]), 12 ([Mn(1,4-DO2A)]), 20 ([Mn(1,7-O2DO2A)]); for t1/2 (h) at pH = 7.4: extrapolated to pH = 7.4; for t1/2 (h) at pH = 7.4 / k1: ref 16 (PC2A complexes), 12, 13, 20; for k1: proton assisted dissociation
[6] = fixed during the fitting procedure

SMILES	r1^298_20 MHz [3] [mM⁻¹ s⁻¹]	ΔH^‡ [3] [kJmol^−1]	q [3, 6]	τR^298 [3] [ps]	Δ^2 [3]	kex^298 [3]	k2 ([5]; T = 25 °C, I = 0.15 M NaCl)	t1/2 (h) at pH = 7.4 [5] [h]	k1 ([5]; T = 25 °C, I = 0.15 M NaCl) [M⁻¹ s⁻¹]	also measured
[Mn+2] [Mn(II) ion]										relaxivity upon binding to HSA ([1]; 0.47 T): 97.2 mM⁻¹ s⁻¹; relaxivity upon binding to HSA ([1]; 1.41 T): 76.35 mM⁻¹ s⁻¹; relaxivity in pure aqueous solution ([1]; Mn(II) ion): 7.92 mM⁻¹ s⁻¹; r2p relaxivity ([2]; 25 °C): 64.3 mM⁻¹ s⁻¹; r2p relaxivity ([2]; 37 °C): 54.2 mM⁻¹ s⁻¹
O=C([O-])CN1CCNCCNCCN(CC(=O)[O-])CC1.[Mn+2] [[Mn(1,4-DO2A)]]	2.1	29.4	0.87	46	481 10^18s^−2	113 10^7s^−1	1.4 × 10^6 M^−2s^−1	48	99	ER ([3]; activation energy of rotation): 19.1 kJmol^−1; τv^298 [3]: 4.4 ps; water exchange faster than on [Mn(3,9-OPC2A)] [4]: 20 times
CN(C)C(=O)CN1CCNCCNCCN(CC(=O)N(C)C)CC1.O.[Mn+2] [[Mn(1,4-DO2AM^Me2)]^2+]	2.5	36.9	0.87	53	510 10^18s^−2	11.5 10^7s^−1		556	8.7	ER ([3]; activation energy of rotation): 19.1 kJmol^−1; τv^298 [3]: 5.5 ps
O.O=C([O-])CN1CCOCCN(CC(=O)[O-])CCOCC1.[Mn+2] [[Mn(1,7-O2DO2A)]]	2.86	29.7	1	46.7	111 10^18s^−2	5.3 10^7s^−1	3.0 × 10^6 M^−2s^−1	56.8	85	ΔS^‡ ([3]; activation entropy of water exchange): 2.8 JK^−1mol^−1; ER [3, 6]: 20 ^e kJmol^−1
O.O=C([O-])CN1CCNCc2cccc(n2)CN(CC(=O)[O-])CC1.[Mn+2] [[Mn(3,6-PC2A)]]							1.5 × 10^5 M^−2s^−1	63.2	70	k3 ([5]; metal assisted dissociation, T = 25 °C, I = 0.15 M NaCl): 0.026 M⁻¹ s⁻¹; KMnL x H ([5]; protonation constant of the complex from kinetic fit, T = 25 °C, I = 0.15 M NaCl): 1.15 × 10^3; KML x Cu ([5]; stability constant of dinuclear intermediate, T = 25 °C, I = 0.15 M NaCl, unit assumed): 16 M⁻¹
O=C([O-])CN1CCNCCN(CC(=O)[O-])CCN(CC(=O)[O-])CC1.[Mn+2] [[Mn(DO3A)]^−]										relaxivity of complexes with q = 0 [1]: 1.4 to 1.6 mM⁻¹ s⁻¹
O=C([O-])CN1CCN(CC(=O)[O-])Cc2cccc(n2)CN(CC(=O)[O-])CC1.[Mn+2] [[Mn(PCTA)]^−]										relaxivity of complexes with q = 0 [1]: 1.4 to 1.6 mM⁻¹ s⁻¹

Source: PMC8778187, “A New Oxygen Containing Pyclen-Type Ligand as a Manganese(II) Binder for MRI and ^52Mn PET Applications: Equilibrium, Kinetic, Relaxometric, Structural and Radiochemical Studies” (Molecules, 2022)
